Each structure is given as a SMILES string.

Results on one compound are retold here after ChEMBL document CHEMBL5715937, “In vitro activity of Bcr-Abl inhibitors AMN107 and BMS-354825 against clinically relevant imatinib-resistant Abl kinase domain mutants” (Cancer Res, 2005).

Assay [1] in a line: Inhibition of BCR-ABL M351T mutant (unknown origin) expressed in mouse BaF3 cells assessed as inhibition of cell growth incubated for 72 hrs by […] CellTiter96 viability analysis.
In assay [2] the test system is BaF3. Briefly: Induction of apoptosis in mouse BaF3 cells expressing Bcr-Abl F359V mutant assessed as increase in apoptotic cells at 1500 nM incubated for 72 hrs by Annexin V-phycoerythrin and 7-amino-actinomycin D staining based PCA instrument analysis relative to control. It is filed as functional.
Assay [3] in a line: Inhibition of BCR-ABL V379l mutant (unknown origin) expressed in mouse BaF3 cells assessed as inhibition of cell growth incubated for 72 hrs by […] CellTiter96 viability analysis.
Assay [4] has as its system BaF3. Briefly: Induction of apoptosis in mouse BaF3 cells expressing Bcr-Abl F311L mutant assessed as increase in apoptotic cells at 1500 nM incubated for 72 hrs by Annexin V-phycoerythrin and 7-amino-actinomycin D staining based PCA instrument analysis relative to control. It is filed as functional.
Setting [5] is: BaF3, time 72 hrs, condition chronic myelogenous leukemia.

For `Cc1cn(-c2cc(NC(=O)c3ccc(C)c(Nc4nccc(-c5cccnc5)n4)c3)cc(C(F)(F)F)c2)cn1` [NILOTINIB], the IC50 in assay [1] (BaF3, 72 h) was found to be 15 nM; in assay [3] (BaF3, 72 h) it was 51 nM. The 90% effect concentration (IC90) is 31 nM in assay [1] (setting [5]) and 115 nM in assay [3] (setting [5]). Further, the Activity with BaF3 [2] and with BaF3 [4] was greater than 90% in each case.

In general, IC50 refers to the concentration that inhibits the measured activity by half. A word on the IC90: it is the concentration needed for an effect of 90%.
